System: Plasmodium berghei, the NK65 strain
Test: Drug suppressive test against P. berghei in mice
Assay type: in vivo, Plasmodium berghei in Swiss outbred mice
Protocol: Adult Swiss outbred mice (20 ± 2 g weigh) were inoculated by the intraperitoneal route with 1 × 10^5 red blood cells infected withP. berghei, the NK65 strain. Groups of 20-30 infected mice were kept together for 2-24 h, then were divided randomly in groups of up to six animals per cage and were treated by gavage for three consecutive days with 25 mg/Kg or 50 mg/Kg of the test compounds diluted in DMSO 3% (v/v). Two control groups were used and either received CQ (20 mg/kg, diluted in water) or the drug vehicle. Smears prepared from the tail blood of the mice on days 5-10 post-infection were methanol-fixed, stained with Giemsa and examined microscopically.

CCN(CC)CCCC(C)Nc1ccnc2cc(Cl)ccc12 (stereo not drawn) [Chloroquine, chloroquine]
Mice survival (increase) (20 mg/kg, increase compared to survival of nontreated controls): > 8 days | Mice survival (mice, 20 mg/kg by gavage, three consecutive days): > 30 days | Parasitaemia reduction at day 10 (mice, 20 mg/kg by gavage, three consecutive days, in relation to untreated mice): 100%

Reference: PMC4660620, “Aspidosperma (Apocynaceae) plant cytotoxicity and activity towards malaria parasites. Part II: experimental studies with Aspidosperma ramiflorum in vivo and in vitro” (Memórias do Instituto Oswaldo Cruz, 2015)
